pKi: −log10 of the molar value.
Experiment: Inhibition of HIV-1 Mutant HIV-1 RT enzymes containing the single amino acid substitution V179D

SMILES	pKi
S=C(NCCOc1nc2cc(Cl)ccc2n2cccc12)Nc1ccc(Br)cn1 [1-(5-Bromo-pyridin-2-yl)-3-[2-(7-chloro-pyrrolo[1,2-a]quinoxalin-4-yloxy)-ethyl]-thiourea]	7.15
Cc1cc2nc(OCCNC(=S)Nc3ccc(Br)cn3)c3cccn3c2cc1C [1-(5-Bromo-pyridin-2-yl)-3-[2-(7,8-dimethyl-pyrrolo[1,2-a]quinoxalin-4-yloxy)-ethyl]-thiourea]	6.10

— BindingDB's records for doi:10.1021/jm0010365 (Universita' Degli Studi Di Salerno, 2001)
